According to patent publication US12161722B2, “Bifunctional heterocyclic compound having BTK degradation function via ubiquitin proteasome pathway, and use thereof” (KOREA RESEARCH INSTITUTE OF CHEMICAL TECHNOLOGY, priority 2021, dated 2024):

Molecular target: T1, WT BTK protein (Homo sapiens, UniProt Q06187)
T1 construct: measured for intracellular BTK protein levels by Western blotting; endogenous in cells; host or cells: TMD-8 or RAMOS cells
Experiment: BTK protein degradation assay (Western blotting), WT BTK
Assay type: cell-based
Conditions: concentration range accounting for 50% degradation of WT BTK protein, TMD-8 or RAMOS cells, 24 hours
How it was run: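 TMD-8 cells (1×10^6 cells/mL) treated 24 h with compound serial dilutions, then lysed in RIPA. Equal protein loads analysed by Western blot for BTK with GAPDH/β-actin as loading controls; activity binned by concentration giving 50% WT BTK degradation.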

T1 sequence (Q06187 whole entry): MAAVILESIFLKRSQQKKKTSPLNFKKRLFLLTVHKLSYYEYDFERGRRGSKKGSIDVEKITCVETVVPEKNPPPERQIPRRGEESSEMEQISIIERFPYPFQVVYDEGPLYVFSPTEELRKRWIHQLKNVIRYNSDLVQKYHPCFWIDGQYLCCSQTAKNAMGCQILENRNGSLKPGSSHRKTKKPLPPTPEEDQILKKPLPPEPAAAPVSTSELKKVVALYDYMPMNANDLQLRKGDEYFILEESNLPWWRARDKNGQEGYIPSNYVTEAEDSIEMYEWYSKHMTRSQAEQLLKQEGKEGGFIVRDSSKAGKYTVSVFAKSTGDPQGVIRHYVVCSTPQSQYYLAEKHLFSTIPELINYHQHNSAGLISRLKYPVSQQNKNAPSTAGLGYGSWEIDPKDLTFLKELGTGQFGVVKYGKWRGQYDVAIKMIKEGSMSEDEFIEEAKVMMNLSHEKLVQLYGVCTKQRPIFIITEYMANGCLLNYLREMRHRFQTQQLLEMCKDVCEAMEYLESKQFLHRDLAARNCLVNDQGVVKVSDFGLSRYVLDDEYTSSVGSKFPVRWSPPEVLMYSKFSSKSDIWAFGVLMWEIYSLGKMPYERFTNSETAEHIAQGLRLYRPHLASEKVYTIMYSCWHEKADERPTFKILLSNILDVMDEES

| DC50 | SMILES |
| --- | --- |
| 0.0001 to 0.01 µM | Cc1cccc(C)c1Nc1nn(C(C)C)c2nc(Nc3ccc4c(c3)CN(CC3CCN(c5ccc6c(c5)C(=O)N(C5CCC(=O)NC5=O)C6=O)CC3)CC4)ncc12 (stereo not shown) [Compound 86, 5-(4-((7-((3-((2,6-Dimethylphenyl)amino)-1-isopropyl-1H-pyrazolo[3,4-d]pyrimidin-6-yl)amino)-3,4-dihydroisoquinolin-2 (1H)-yl)methyl)piperidin-1-yl)-2-(2,6-dioxopiperidin-3-yl)isoindoline-1,3-dione] |
| 0.0001 to 0.01 µM | Cc1cccc(C)c1Nc1nn(C)c2nc(Nc3ccc4c(c3)CN(C(=O)CN3CCN(c5ccc6c(c5)CN(C5CCC(=O)NC5=O)C6=O)CC3)CC4)ncc12 (stereo not shown) [Compound 104, 3-(5-(4-(2-(7-((3-((2,6-Dimethylphenyl)amino)-1-methyl-1H-pyrazolo[3,4-d]pyrimidin-6-yl)amino)-3,4-dihydroisoquinolin-2 (1H)-yl)-2-oxoethyl)piperazin-1-yl)-1-oxoisoindolin-2-yl)piperidin-2,6-one] |
| 0.0001 to 0.01 µM | Cc1cccc(C)c1Nc1nn(C)c2nc(Nc3ccc4c(c3)CN(CC3CN(C(=O)C5CCN(c6ccc7c(c6)C(=O)N(C6CCC(=O)NC6=O)C7=O)CC5)C3)CC4)ncc12 (stereo not shown) [Compound 40, 5-(4-(3-((7-((3-((2,6-Dimethylphenyl)amino)-1-methyl-1H-pyrazolo[3,4-d]pyrimidin-6-yl)amino)-3,4-dihydroisoquinolin-2 (1H)-yl)methyl)azetidine-1-carbonyl)piperidin-1-yl)-2-(2,6-dioxopiperidin-3-yl)isoindoline-1,3-dione] |
| 0.0001 to 0.01 µM | Cc1cccc(C)c1Nc1nn(C)c2nc(Nc3ccc(N4CCN(CC5CN(c6ccc7c(c6)C(=O)N(C6CCC(=O)NC6=O)C7=O)C5)C[C@@H]4C)cc3)ncc12 (stereo partly drawn) [Compound 183, 5-(3-(((S)-4-(4-((3-((2,6-Dimethylphenyl)amino)-1-methyl-1H-pyrazolo[3,4-d]pyrimidin-6-yl)amino)phenyl)-3-methylpiperazin-1-yl)methyl)azetidin-1-yl)-2-(2,6-dioxopiperidin-3-yl)isoindoline-1,3-dione] |
| 0.0001 to 0.01 µM | Cc1cccc(C)c1Nc1nn(C)c2nc(Nc3ccc(C4=CCN(CC5CCN(c6ccc7c(c6)C(=O)N(C6CCC(=O)NC6=O)C7=O)CC5)CC4)cc3)ncc12 (stereo not shown) [Compound 230, 5-(4-((4-(4-((3-((2,6-Dimethylphenyl)amino)-1-methyl-1H-pyrazolo[3,4-d]pyrimidin-6-yl)amino)phenyl)-3,6-dihydropyridin-1 (2H)-yl)methyl)piperidin-1-yl)-2-(2,6-dioxopiperidin-3-yl)isoindoline-1,3-dione] |
| 0.0001 to 0.01 µM | Cc1cccc(C)c1Nc1nn(C)c2nc(Nc3ccc(C4CCN(C[C@H]5CCN(c6ccc7c(c6)C(=O)N(C6CCC(=O)NC6=O)C7=O)C5)CC4)cc3)ncc12 (stereo partly drawn) [Compound 166, 5-((R)-3-((4-(4-((3-((2,6-Dimethylphenyl)amino)-1-methyl-1H-pyrazolo[3,4-d]pyrimidin-6-yl)amino)phenyl)piperidin-1-yl)methyl)pyrrolidin-1-yl)-2-(2,6-dioxopiperidin-3-yl)isoindoline-1,3-dione] |
| 0.0001 to 0.01 µM | Cc1cccc(C)c1Nc1nn(C)c2nc(Nc3ccc(C4CN(CC5CCN(c6ccc7c(c6)C(=O)N(C6CCC(=O)NC6=O)C7=O)CC5)C4)cc3)ncc12 (stereo not shown) [Compound 175, 5-(4-((3-(4-((3-((2,6-Dimethylphenyl)amino)-1-methyl-1H-pyrazolo[3,4-d]pyrimidin-6-yl)amino)phenyl)azetidin-1-yl)methyl)piperidin-1-yl)-2-(2,6-dioxopiperidin-3-yl)isoindoline-1,3-dione] |
| 0.0001 to 0.01 µM | Cc1cccc(C)c1Nc1nn(C)c2nc(Nc3ccc4c(c3)CN(CC3(O)CCN(c5ccc6c(n5)CN(C5CCC(=O)NC5=O)C6=O)CC3)CC4)ncc12 (stereo not shown) [Compound 133, 3-(2-(4-((7-((3-((2,6-Dimethylphenyl)amino)-1-methyl-1H-pyrazolo[3,4-d]pyrimidin-6-yl)amino)-3,4-dihydroisoquinolin-2 (1H)-yl)methyl)-4-hydroxypiperidin-1-yl)-5-oxo-5,7-dihydro-6H-pyrrolo[3,4-b]pyridin-6-yl)piperidin-2,6-one] |
| 0.0001 to 0.01 µM | Cc1cccc(C)c1Nc1nn(C)c2nc(Nc3ccc4c(c3)CN(C(=O)C3(F)CCN(c5ccc6c(c5)C(=O)N(C5CCC(=O)NC5=O)C6=O)CC3)CC4)ncc12 (stereo not shown) [Compound 243, 5-(4-(7-((3-((2,6-dimethylphenyl)amino)-1-methyl-1H-pyrazolo[3,4-d]pyrimidin-6-yl)amino)-1,2,3,4-tetrahydroisoquinoline-2-carbonyl)-4-fluoropiperidin-1-yl)-2-(2,6-dioxopiperidin-3-yl)isoindoline-1,3-dione] |
| 0.0001 to 0.01 µM | Cc1cccc(C)c1Nc1nn(C)c2nc(Nc3ccc(N4CCN(C[C@@H]5CCN(c6ccc7c(c6)C(=O)N(C6CCC(=O)NC6=O)C7=O)C5)CC4)cc3)ncc12 (stereo partly drawn) [Compound 180, 5-((S)-3-((4-(4-((3-((2,6-Dimethylphenyl)amino)-1-methyl-1H-pyrazolo[3,4-d]pyrimidin-6-yl)amino)phenyl)piperazin-1-yl)methyl)pyrrolidin-1-yl)-2-(2,6-dioxopiperidin-3-yl)isoindoline-1,3-dione] |
| 0.0001 to 0.01 µM | Cc1cccc(C)c1Nc1nn(C)c2nc(Nc3ccc4c(c3)CN(C(=O)C3CCN(C(=O)CN5CCN(c6ccc7c(c6)C(=O)N(C6CCC(=O)NC6=O)C7=O)CC5)CC3)CC4)ncc12 (stereo not shown) [Compound 44, 5-(4-(2-(4-(7-((3-((2,6-Dimethylphenyl)amino)-1-methyl-1H-pyrazolo[3,4-d]pyrimidin-6-yl)amino)-1,2,3,4-tetrahydroisoquinoline-2-carbonyl)piperidin-1-yl)-2-oxoethyl)piperazin-1-yl)-2-(2,6-dioxopiperidin-3-yl)isoindoline-1,3-dione] |
| 0.0001 to 0.01 µM | Cc1cccc(C)c1Nc1nn(C)c2nc(Nc3ccc4c(c3)CN(C3CCN(C[C@@H]5CCN(c6ccc7c(c6)C(=O)N(C6CCC(=O)NC6=O)C7=O)C5)CC3)CC4)ncc12 (stereo partly drawn) [Compound 143, 5-((S)-3-((4-(7-((3-((2,6-dimethylphenyl)amino)-1-methyl-1H-pyrazolo[3,4-d]pyrimidin-6-yl)amino)-3,4-dihydroisoquinolin-2 (1H)-yl)piperidin-1-yl)methyl)pyrrolidin-1-yl)-2-(2,6-dioxopiperidin-3-yl)isoindoline-1,3-dione] |
| 0.0001 to 0.01 µM | Cc1cccc(C)c1Nc1nn(C)c2nc(Nc3ccc(N4CCN(CC5CCN(c6ccc7c(c6)C(=O)N(C6CCC(=O)NC6=O)C7=O)CC5)CC4)nc3)ncc12 (stereo not shown) [Compound 134, 5-(4-((4-(5-((3-((2,6-Dimethylphenyl)amino)-1-methyl-1H-pyrazolo[3,4-d]pyrimidin-6-yl)amino)pyridin-2-yl)piperazin-1-yl)methyl)piperidin-1-yl)-2-(2,6-dioxopiperidin-3-yl)isoindoline-1,3-dione] |
| 0.0001 to 0.01 µM | Cc1cccc(C)c1Nc1nn(C)c2nc(Nc3ccc(N4CCN(CC5CCN(C(=O)c6ccc7c(c6)CN(C6CCC(=O)NC6=O)C7=O)CC5)CC4)cc3)ncc12 (stereo not shown) [Compound 256, 3-(5-(4-((4-(4-((3-((2,6-Dimethylphenyl)amino)-1-methyl-1H-pyrazolo[3,4-d]pyrimidin-6-yl)amino)phenyl)piperazin-1-yl)methyl)piperidine-1-carbonyl)-1-oxoisoindolin-2-yl)piperidin-2,6-one] |
| 0.0001 to 0.01 µM | Cc1cccc(C)c1Nc1nn(C)c2nc(Nc3ccc4c(c3)CN(C(=O)Nc3ccc5c(c3)CN(C3CCC(=O)NC3=O)C5=O)CC4)ncc12 (stereo not shown) [Compound 96, 7-((3-((2,6-dimethylphenyl)amino)-1-methyl-1H-pyrazolo[3,4-d]pyrimidin-6-yl)amino)-N-(2-(2,6-dioxopiperidin-3-yl)-1-oxoisoindolin-5-yl)-3,4-dihydroisoquinoline-2 (1H)-carboxamide] |
| 0.0001 to 0.01 µM | Cc1cccc(C)c1Nc1nn(C)c2nc(Nc3ccc(N4CCN(CC5CN(c6ccc7c(c6)C(=O)N(C6CCC(=O)NC6=O)C7=O)C5)C[C@H]4C)cc3)ncc12 (stereo partly drawn) [Compound 184, 5-(3-(((R)-4-(4-((3-((2,6-Dimethylphenyl)amino)-1-methyl-1H-pyrazolo[3,4-d]pyrimidin-6-yl)amino)phenyl)-3-methylpiperazin-1-yl)methyl)azetidin-1-yl)-2-(2,6-dioxopiperidin-3-yl)isoindoline-1,3-dione] |
| 0.01 to 1 µM | Cc1cccc(C)c1Nc1nn(C)c2nc(Nc3ccc4c(c3)CN(C(=O)C3CCN(C(=O)C5CCN(c6ccc7c(c6)C(=O)N(C6CCC(=O)NC6=O)C7=O)CC5)C3)CC4)ncc12 (stereo not shown) [Compound 67, 5-(4-(3-(7-((3-((2,6-Dimethylphenyl)amino)-1-methyl-1H-pyrazolo[3,4-d]pyrimidin-6-yl)amino)-1,2,3,4-tetrahydroisoquinoline-2-carbonyl)pyrrolidine-1-carbonyl)piperidin-1-yl)-2-(2,6-dioxopiperidin-3-yl)isoindoline-1,3-dione] |
| 0.0001 to 0.01 µM | Cc1cccc(Br)c1Nc1nn(C)c2nc(Nc3ccc4c(c3)CN(CC3CCN(c5ccc6c(c5)C(=O)N(C5CCC(=O)NC5=O)C6=O)CC3)CC4)ncc12 (stereo not shown) [Compound 195, 5-(4-((7-((3-((2-Bromo-6-methylphenyl)amino)-1-methyl-1H-pyrazolo[3,4-d]pyrimidin-6-yl)amino)-3,4-dihydroisoquinolin-2 (1H)-yl)methyl)piperidin-1-yl)-2-(2,6-dioxopiperidin-3-yl)isoindoline-1,3-dione] |
| 0.01 to 1 µM | Cc1cccc(C)c1Nc1nn(C)c2nc(Nc3ccc(C4CCN(CC5CCN(c6ccc7c(c6)C(=O)N(C6CCC(=O)NC6=O)C7=O)CC5)CC4)cc3F)ncc12 (stereo not shown) [Compound 231, 5-(4-((4-(4-((3-((2,6-Dimethylphenyl)amino)-1-methyl-1H-pyrazolo[3,4-d]pyrimidin-6-yl)amino)-3-fluorophenyl)piperidin-1-yl)methyl)piperidin-1-yl)-2-(2,6-dioxopiperidin-3-yl)isoindoline-1,3-dione] |
